Assay results taken from patent US9096593B2, “Compounds and methods for kinase modulation, and indications therefor” (Plexxikon Inc., priority 2009, dated 2015).

Test system: Osteoclast precursor cells
Experiment: Osteoclast differentiation assay (acid phosphatase readout)
Format: cell-based
Details: RANKL and M-CSF
Procedure: Further, an osteoclast differentiation assay is used to assess the efficacy of Fms inhibitors for treating bone disease such as osteoarthritis. On day 0, Osteoclast Medium BulletKit (Lonza catalog #PT-8001, containing Media, FBS, L-Glutamine, PenStrep, RANKL, and M-CSF) media is thawed and the FBS, L-glutamine and PenStrep from the kit is added to 100 mL of Osteoclast Precursor Basal medium to provide the Osteoclast Precursor Growth Medium (OPGM). This is warmed to 37° C. Osteoclast precursor cells (Lonza catalog #2T-110) frozen in cryovial are warmed to 37° C. and transferred to a 50 mL conical tube. The cryovial is rinsed with OPGM and added dropwise to the conical tube of cells with swirling, then the volume is adjusted to 20-30 mL with addition of OPGM. The cells are centrifuged at 200×g for 15 minutes at room temperature and all but approximately 3 mL of supernatant is removed to a new conical tube. The cells are suspended in the remaining supernatant and the volume is adjusted to 10-15 mL with OPGM added dropwise with swirling. […] The cells are resuspended in the remaining supernatant, counted, and the volume adjusted with an appropriate amount of OPGM to provide approximately 1×10^5 cells/mL. […] The absorbance of each well is read at 405 nm on Safire plate reader. The absorbance reading is plotted vs. concentration to provide the IC50 for each compound.

## Clc1cnc2[nH]cc(Cc3ccc(NCc4ccc(Cl)nc4)nc3)c2c1 [Compound P-2003]
  IC50: < 100 nM
